Data from ChEMBL document CHEMBL1201862, “PubChem BioAssay data set” (2004).
Calls of active or inactive are those of the source.

Experiments:
Beta-lactamase [1] = target: T1, Beta-lactamase (Pseudomonas aeruginosa, UniProt Q79MP6); experiment: […] counterscreen for selective VIM-2 inhibitors: dose response biochemical high throughput screening assay to identify inhibitors of IMP-1 metallo-beta-lactamase.
Beta-lactamase [2] = target: Beta-lactamase (Salmonella choleraesuis (strain SC-B67), UniProt Q5J463); experiment: Epi-absorbance-based counterscreen for selective VIM-2 inhibitors: dose response biochemical high throughput screening assay to identify inhibitors of TEM-1 serine-beta-lactamase.
Beta-lactamase [3] = target: T1, Beta-lactamase; experiment: IMP-1 metallo-beta-lactamase inhibitors, dose response, selectivity assay for VIM-2 inhibitor project, biochemical, epi-absorbance (AID 1920)
[4] = Counterscreen for inhibitors of Trypanosoma brucei methionyl tRNA synthetase (MetRS): Luminescence-based cell-based high throughput dose response assay to identify compounds that are cytotoxic to Jurkat human T lymphocyte cells.; assay type: functional
[5] = target: T2, Methionyl-tRNA synthetase, putative (Trypanosoma brucei brucei, UniProt Q38C91); assay type: functional, Trypanosoma brucei brucei strain 927/4 GUTat10.1
T2 sequence (Q38C91 whole entry): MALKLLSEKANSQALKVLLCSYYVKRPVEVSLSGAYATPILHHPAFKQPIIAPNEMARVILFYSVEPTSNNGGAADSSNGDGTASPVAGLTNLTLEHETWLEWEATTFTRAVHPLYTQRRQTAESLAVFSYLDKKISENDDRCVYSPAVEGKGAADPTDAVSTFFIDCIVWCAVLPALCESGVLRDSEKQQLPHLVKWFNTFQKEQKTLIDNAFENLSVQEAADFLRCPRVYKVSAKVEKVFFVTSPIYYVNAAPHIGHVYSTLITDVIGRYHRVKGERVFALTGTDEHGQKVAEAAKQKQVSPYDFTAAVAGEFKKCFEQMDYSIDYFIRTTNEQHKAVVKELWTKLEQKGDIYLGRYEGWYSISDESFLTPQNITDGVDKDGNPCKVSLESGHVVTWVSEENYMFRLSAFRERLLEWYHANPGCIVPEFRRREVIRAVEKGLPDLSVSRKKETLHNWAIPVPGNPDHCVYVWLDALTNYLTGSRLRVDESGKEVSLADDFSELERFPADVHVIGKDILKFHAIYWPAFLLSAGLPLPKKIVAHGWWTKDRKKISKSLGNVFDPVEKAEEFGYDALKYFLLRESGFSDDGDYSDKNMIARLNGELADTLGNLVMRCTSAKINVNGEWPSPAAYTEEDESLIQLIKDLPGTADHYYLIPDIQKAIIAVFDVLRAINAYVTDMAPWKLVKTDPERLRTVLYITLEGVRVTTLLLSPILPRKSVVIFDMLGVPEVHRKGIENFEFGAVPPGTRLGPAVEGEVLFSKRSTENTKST

[6] = target: T2, Methionyl-tRNA synthetase, putative; assay type: functional, Trypanosoma brucei brucei strain 927/4 GUTat10.1; remark: listed apart in the source
[7] = Counterscreen for activators of the function of SWI/SNF related, matrix associated, actin dependent regulator of chromatin, subfamily a, member 2 (SMARCA2, BRM): Luminescence-based cell-based high throughput dose response assay to identify non-selective compounds using the VP16 reporter assay.; assay type: functional
[8] = Fluorescence-based cell-based high throughput dose response assay for inhibitors of the interaction of nucleotide-binding oligomerization domain containing 2 (NOD2) and the receptor-interacting serine-threonine kinase 2 (RIPK2).; assay type: functional; conditions: Homo sapiens
[9] = target: SWI/SNF-related matrix-associated actin-dependent regulator of chromatin subfamily A member 2 (Homo sapiens, UniProt P51531); experiment: Luminescence-based cell-based high throughput dose response assay to identify activators of the function of SWI/SNF related, matrix associated, actin dependent regulator of chromatin, subfamily a, member 2 (SMARCA2, BRM).; assay type: functional
[10] = target: 26S proteasome non-ATPase regulatory subunit 14 (Homo sapiens, UniProt O00487); experiment: inhibition of proteasome subunit RPN11 – biochemical, fluorescence polarization, uHTS hits, confirmation (AID 602368); assay type: functional
Prothrombin = Prothrombin (Bos taurus, UniProt P00735); experiment: thrombin inhibition, dose response, biochemical, fluorescence polarization, uHTS hits (AID 602369); assay type: functional
[11] = target: 72 kDa type IV collagenase (Homo sapiens, UniProt P08253); experiment: Dose Response validation of uHTS RPN11 inhibitor hits using a MMP-2 Fluorescence assay.; assay type: functional
HeLa = experiment: HeLa cell cytotoxicity, dose response, cytotoxicity control for MITF activator project, CellTiter-Glo luminescence, cherry-pick samples (AID 540259); assay type: functional, cell-based; conditions: Homo sapiens
Steroidogenic factor 1 = Steroidogenic factor 1 (Homo sapiens, UniProt Q13285); experiment: Counterscreen for inverse agonists of the liver receptor homolog-1 (LRH-1; NR5A2): Luminescence-based cell-based high throughput dose response assay to identify inverse agonists of the Steroidogenic Factor 1 Nuclear Receptor (SF1; NR5A1).; assay type: functional
[12] = StAR promoter reporter inhibition counter-screen, dose response, counter-screen for LRH-1 inverse agonist project, cell-based, luminescence, luciferase reporter (AID 651969); assay type: functional
[13] = target: Nuclear receptor subfamily 5 group A member 2 (Homo sapiens, UniProt O00482); assay type: functional, cell-based;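 also: HEK293T cells transfected with LRH-1 and a StAR promoter luciferase reporter; potency for inhibitors that lower LRH-1 driven reporter light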
[14] = target: Adenosylmethionine-8-amino-7-oxononanoate aminotransferase (Mycobacterium tuberculosis, UniProt P9WQ81); experiment: Mycobacterium tuberculosis BioA enzyme inhibitor Measured in Biochemical System Using Plate Reader - 2163-02_Inhibitor_Dose_CherryPick_Activity.; assay type: functional, Mycobacterium tuberculosis UT205
Chain of Adenosylmethionine-8-amino-7-oxononanoate aminotransferase (P9WQ81 whole entry): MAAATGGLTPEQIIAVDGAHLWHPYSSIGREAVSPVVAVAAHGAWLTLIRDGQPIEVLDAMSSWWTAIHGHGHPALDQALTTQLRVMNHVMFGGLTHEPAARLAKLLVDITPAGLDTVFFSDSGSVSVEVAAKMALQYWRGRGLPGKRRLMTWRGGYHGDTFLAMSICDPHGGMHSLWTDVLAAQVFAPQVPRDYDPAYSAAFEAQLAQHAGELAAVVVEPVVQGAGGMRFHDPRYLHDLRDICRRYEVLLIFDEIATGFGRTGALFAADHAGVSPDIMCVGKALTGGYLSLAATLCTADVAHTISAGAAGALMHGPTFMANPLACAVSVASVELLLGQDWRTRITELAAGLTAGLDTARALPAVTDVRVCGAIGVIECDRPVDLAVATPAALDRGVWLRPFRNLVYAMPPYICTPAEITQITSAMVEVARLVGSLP

Chain of 26S proteasome non-ATPase regulatory subunit 14 (O00487 whole entry): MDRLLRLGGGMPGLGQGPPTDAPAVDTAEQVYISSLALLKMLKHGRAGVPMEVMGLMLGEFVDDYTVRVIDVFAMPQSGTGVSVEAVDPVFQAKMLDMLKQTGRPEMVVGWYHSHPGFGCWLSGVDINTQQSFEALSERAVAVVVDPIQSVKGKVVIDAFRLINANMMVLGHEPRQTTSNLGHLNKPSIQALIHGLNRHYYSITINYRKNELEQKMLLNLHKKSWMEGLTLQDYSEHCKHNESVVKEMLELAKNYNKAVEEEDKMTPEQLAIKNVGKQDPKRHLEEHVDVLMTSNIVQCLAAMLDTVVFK
T1 sequence (Q79MP6 whole entry): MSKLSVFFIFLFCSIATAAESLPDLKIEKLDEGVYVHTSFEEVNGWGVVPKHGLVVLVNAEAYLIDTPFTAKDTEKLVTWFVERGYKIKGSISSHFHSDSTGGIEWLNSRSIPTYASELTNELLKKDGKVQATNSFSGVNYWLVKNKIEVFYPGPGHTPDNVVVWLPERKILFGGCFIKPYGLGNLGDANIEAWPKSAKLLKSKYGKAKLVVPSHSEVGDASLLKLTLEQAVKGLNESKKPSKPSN
Chain of 72 kDa type IV collagenase (P08253 whole entry): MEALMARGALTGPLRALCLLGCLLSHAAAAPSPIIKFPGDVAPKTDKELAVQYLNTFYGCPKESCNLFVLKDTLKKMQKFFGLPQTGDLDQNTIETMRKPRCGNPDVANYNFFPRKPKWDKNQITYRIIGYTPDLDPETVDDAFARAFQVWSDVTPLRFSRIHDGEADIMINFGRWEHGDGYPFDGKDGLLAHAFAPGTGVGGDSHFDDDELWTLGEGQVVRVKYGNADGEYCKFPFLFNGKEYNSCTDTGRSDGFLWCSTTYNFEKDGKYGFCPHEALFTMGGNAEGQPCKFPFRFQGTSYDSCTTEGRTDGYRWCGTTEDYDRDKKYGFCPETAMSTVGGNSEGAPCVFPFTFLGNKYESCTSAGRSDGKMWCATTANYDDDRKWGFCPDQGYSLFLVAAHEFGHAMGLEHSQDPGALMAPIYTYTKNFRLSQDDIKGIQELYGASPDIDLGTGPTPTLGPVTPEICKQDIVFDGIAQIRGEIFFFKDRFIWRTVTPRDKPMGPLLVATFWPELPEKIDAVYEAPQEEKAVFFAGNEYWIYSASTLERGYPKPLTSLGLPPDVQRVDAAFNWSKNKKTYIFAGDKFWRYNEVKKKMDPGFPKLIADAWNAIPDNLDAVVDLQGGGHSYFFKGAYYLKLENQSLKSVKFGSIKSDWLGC
Chain of Nuclear receptor subfamily 5 group A member 2 (O00482 whole entry): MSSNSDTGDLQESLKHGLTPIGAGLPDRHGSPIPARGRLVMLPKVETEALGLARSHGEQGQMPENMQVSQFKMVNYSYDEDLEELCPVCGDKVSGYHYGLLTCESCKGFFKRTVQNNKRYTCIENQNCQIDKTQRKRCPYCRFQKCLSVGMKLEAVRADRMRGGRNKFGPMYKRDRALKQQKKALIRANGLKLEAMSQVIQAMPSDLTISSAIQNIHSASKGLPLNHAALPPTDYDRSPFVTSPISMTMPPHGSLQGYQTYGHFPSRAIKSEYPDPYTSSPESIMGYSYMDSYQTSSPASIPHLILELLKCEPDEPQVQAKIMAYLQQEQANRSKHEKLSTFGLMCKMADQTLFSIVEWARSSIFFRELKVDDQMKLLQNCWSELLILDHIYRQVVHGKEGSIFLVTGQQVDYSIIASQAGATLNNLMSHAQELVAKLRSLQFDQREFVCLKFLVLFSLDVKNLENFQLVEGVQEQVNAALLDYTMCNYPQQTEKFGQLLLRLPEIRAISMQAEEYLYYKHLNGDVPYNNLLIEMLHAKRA
Chain of SWI/SNF-related matrix-associated actin-dependent regulator of chromatin subfamily A member 2 (P51531 whole entry): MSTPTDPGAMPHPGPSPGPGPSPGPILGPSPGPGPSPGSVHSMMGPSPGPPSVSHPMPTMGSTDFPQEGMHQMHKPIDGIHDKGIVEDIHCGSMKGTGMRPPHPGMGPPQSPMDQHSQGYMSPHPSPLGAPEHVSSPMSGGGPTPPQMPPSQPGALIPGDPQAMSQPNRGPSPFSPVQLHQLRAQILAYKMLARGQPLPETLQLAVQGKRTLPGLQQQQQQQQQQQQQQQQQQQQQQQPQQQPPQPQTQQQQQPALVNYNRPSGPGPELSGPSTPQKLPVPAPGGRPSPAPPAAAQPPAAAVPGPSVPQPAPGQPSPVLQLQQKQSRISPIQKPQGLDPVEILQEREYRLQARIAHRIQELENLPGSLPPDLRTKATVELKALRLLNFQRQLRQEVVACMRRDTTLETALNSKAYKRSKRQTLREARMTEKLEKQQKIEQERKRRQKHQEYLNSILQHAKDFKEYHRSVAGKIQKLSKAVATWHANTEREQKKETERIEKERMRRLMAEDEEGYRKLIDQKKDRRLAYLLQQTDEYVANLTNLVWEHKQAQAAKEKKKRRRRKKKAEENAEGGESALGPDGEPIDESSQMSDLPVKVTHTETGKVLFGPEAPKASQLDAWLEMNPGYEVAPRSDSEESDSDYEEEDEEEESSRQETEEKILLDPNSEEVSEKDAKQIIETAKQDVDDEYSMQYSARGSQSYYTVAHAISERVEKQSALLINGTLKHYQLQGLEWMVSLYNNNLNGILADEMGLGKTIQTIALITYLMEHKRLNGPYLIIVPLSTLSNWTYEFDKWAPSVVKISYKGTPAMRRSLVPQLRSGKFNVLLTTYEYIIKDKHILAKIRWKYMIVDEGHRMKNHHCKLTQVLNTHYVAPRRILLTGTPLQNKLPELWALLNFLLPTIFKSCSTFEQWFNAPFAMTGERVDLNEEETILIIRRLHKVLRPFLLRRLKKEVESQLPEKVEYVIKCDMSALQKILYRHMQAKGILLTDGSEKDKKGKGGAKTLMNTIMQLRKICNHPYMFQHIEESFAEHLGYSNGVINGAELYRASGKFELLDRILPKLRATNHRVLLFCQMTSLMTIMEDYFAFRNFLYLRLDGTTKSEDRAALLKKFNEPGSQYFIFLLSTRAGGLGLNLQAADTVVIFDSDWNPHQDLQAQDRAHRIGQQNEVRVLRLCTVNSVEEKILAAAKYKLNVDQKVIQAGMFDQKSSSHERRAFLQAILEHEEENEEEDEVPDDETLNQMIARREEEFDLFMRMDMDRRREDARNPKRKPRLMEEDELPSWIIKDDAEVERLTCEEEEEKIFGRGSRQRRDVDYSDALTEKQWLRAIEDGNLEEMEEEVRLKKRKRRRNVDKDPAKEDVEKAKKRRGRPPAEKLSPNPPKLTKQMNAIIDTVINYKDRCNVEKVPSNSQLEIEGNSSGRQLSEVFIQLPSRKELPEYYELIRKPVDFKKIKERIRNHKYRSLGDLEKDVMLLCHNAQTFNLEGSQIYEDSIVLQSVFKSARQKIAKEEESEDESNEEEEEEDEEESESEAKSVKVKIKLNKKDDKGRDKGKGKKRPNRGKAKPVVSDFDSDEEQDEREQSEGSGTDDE
Chain of Beta-lactamase (Salmonella choleraesuis (strain SC-B67), UniProt Q5J463) (Q5J463 whole entry): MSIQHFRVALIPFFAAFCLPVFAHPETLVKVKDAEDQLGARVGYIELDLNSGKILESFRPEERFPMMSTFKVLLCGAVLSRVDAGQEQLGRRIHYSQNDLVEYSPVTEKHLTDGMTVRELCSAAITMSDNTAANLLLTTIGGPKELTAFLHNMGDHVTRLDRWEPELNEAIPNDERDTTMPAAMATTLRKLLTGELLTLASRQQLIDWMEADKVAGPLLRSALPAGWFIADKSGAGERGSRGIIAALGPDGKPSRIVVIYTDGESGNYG
Chain of Steroidogenic factor 1 (Q13285 whole entry): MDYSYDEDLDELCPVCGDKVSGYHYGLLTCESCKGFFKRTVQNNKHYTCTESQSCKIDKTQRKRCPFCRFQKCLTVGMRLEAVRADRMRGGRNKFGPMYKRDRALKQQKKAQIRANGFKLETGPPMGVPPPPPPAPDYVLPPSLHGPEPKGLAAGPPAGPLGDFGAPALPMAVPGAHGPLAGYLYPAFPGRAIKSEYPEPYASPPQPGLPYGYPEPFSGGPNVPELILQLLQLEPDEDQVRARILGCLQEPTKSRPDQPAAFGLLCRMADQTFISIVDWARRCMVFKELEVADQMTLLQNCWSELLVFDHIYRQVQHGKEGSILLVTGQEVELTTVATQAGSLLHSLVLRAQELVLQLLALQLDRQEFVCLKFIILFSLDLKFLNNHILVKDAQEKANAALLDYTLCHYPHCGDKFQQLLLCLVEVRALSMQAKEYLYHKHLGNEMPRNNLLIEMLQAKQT

For `CCOC(=O)N=S(N)(=O)c1ccccc1` (stereo not drawn), which IC50 (Beta-lactamase [1]) is on record?
Its IC50 is > 59.6 µM (inactive).

What about the IC50 (Beta-lactamase [2]) of the same compound?
The IC50 was > 59.6 µM (inactive).

What about the IC50 (Beta-lactamase [3]) of the same compound?
Its IC50 is > 59.6 µM (inactive).

Which results are given for `CN(C)S(=O)(=O)c1cccc(NC(=O)Cc2ccc(Cl)cc2)c1`?
IC50 [4]: 83.3 µM (inactive); IC50 [5]: 32.3 µM (inactive); IC50 [6]: 72.3 µM (inactive)

With `CN(CC(=O)Nc1ccccc1Cl)C(=O)COC(=O)c1nc(Cl)c(Cl)c(Cl)c1Cl` as the compound, how does the EC50 [7] read?
The EC50 was > 91.2 µM (inactive).

What about the IC50 [8] of the same compound?
The IC50 was 8.62 µM (active).

What about the EC50 [9] of the same compound?
Its EC50 is > 91.2 µM (inactive).

Which results are given for `O=c1[nH]c(CSc2ncnc3sccc23)nc2cc(C(F)(F)F)ccc12`?
IC50 [10]: 32 µM (active); IC50 (Prothrombin): 60.8 µM (active); IC50 [11]: > 100 µM (inactive)

With `N=C(NOC(=O)c1ccc2c(c1)OCO2)c1ccc(Cl)cc1` as the compound, how does the AC50 (HeLa) read?
The AC50 was 69 µM (active).

With `Cc1cc2nc(CS)[nH]c2cc1C` as the compound, how does the IC50 [10] read?
Its IC50 is 51.1 µM (active).

What about the IC50 (Prothrombin) of the same compound?
Its IC50 is > 100 µM (inactive).

What about the IC50 [11] of the same compound?
The IC50 was 9.51 µM (active).

Which IC50 (Steroidogenic factor 1) does the source give for `Cc1cccc(NC(=O)COC(=O)Cc2cccs2)c1C` here?
Its IC50 is 7.35 µM (active).

What about the IC50 [12] of the same compound?
Its IC50 is 35.9 µM (inactive).

And the IC50 [13]?
Its IC50 is 12.8 µM (inactive).

With `COc1cc(-c2nnc(S)n2Cc2ccccc2)cc(OC)c1OC` as the compound, how does the AC50 [14] read?
The AC50 was 2.51 µM (active).

What does the source list for `C/C(CC(=O)Nc1cccc(Br)c1)=N\NC(=O)c1ccc(O)cc1O`?
IC50 [4]: 83.3 µM (inactive); IC50 [5]: 0.756 µM (active); IC50 [6]: 1.23 µM (active)
